Laboratory results published in PMC2920070 (Journal of medicinal chemistry, 2010).
In brackets after ≈: the same amount, converted by molar mass. Each block holds one compound with its values, some of them ahead of it.

Key:
NR1/NR2D = NR1/NR2D (Rattus norvegicus, UniProt P35439+Q62645); test: Two-electrode voltage-clamp, recombinant NR1/NR2D in Xenopus oocytes; format: cell-based; conditions: for GluR1/NR2D: (IC50 GluR1)/(IC50 NR2D) / NR2A/NR2D: (IC50 NR2A)/(IC50 NR2D): selectivity ratio; for response at saturating concentration, NR2D (fitted minimum): fit with variable minimum
Sequence of NR1/NR2D (Q62645 28-1323, other chains not shown): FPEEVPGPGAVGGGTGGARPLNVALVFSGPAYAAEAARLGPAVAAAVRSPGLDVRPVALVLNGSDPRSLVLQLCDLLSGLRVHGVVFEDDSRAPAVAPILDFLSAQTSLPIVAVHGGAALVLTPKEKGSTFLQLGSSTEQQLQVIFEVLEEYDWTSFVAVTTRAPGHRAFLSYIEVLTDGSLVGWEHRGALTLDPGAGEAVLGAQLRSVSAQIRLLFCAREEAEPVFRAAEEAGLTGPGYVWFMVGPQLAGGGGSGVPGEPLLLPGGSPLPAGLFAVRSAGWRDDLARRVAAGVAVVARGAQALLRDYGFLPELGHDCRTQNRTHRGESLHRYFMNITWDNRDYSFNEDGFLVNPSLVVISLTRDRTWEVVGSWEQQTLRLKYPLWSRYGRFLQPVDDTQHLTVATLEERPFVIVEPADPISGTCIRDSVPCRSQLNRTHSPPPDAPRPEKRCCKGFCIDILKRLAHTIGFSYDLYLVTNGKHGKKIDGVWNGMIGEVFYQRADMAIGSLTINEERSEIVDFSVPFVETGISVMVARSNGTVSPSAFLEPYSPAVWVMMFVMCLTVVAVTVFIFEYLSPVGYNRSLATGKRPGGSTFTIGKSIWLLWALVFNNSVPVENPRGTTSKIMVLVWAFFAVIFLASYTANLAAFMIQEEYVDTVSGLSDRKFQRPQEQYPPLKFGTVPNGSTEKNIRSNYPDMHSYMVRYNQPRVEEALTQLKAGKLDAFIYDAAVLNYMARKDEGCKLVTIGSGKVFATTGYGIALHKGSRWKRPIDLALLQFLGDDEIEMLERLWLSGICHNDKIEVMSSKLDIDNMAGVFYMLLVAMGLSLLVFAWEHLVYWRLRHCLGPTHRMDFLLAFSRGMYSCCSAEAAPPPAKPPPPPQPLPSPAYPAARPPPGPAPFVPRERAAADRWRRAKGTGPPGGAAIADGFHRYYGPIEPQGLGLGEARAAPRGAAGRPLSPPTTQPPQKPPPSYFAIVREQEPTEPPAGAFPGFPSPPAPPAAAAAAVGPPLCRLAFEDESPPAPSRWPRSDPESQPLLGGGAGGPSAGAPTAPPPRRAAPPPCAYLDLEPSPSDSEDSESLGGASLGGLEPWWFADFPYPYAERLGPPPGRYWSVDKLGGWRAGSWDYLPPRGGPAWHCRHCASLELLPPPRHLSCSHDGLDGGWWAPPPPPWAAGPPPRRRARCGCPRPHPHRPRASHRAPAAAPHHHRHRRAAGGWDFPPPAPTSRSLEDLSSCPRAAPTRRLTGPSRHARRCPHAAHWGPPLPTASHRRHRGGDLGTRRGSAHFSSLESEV

NR1/NR2C = NR1/NR2C (Rattus norvegicus, UniProt P35439+Q00961); test: Two-electrode voltage-clamp, recombinant NR1/NR2C in Xenopus oocytes; format: cell-based; conditions: for response at saturating concentration, NR2C (fitted minimum): fit with variable minimum
GluR1 = GluR1 (Rattus norvegicus, UniProt P19490); test: Two-electrode voltage-clamp, recombinant GluR1; format: cell-based
Sequence of GluR1 (P19490 19-907): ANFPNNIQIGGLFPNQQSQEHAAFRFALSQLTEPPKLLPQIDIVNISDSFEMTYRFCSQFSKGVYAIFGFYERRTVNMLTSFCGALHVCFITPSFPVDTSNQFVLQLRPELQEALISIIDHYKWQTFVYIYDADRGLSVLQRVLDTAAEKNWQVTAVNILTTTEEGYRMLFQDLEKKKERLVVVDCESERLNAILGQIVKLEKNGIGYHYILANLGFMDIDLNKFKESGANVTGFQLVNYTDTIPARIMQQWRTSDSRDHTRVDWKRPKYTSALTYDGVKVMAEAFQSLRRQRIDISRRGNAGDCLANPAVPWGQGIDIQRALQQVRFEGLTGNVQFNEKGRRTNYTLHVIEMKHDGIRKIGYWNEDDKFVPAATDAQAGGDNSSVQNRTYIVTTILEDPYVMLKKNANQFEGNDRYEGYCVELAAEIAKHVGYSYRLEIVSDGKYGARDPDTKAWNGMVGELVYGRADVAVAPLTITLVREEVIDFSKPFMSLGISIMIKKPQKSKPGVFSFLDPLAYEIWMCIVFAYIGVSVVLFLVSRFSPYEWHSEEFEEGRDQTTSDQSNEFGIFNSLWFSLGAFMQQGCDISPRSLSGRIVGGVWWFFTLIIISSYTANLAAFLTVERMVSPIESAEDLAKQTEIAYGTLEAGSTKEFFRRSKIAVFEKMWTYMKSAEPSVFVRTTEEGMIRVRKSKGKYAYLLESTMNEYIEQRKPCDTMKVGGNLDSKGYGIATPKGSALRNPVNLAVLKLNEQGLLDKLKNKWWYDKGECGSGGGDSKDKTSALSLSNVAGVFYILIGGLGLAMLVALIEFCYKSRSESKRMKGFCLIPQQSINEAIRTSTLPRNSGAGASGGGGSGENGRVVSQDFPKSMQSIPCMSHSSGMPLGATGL

GluR6 = GluR6 (Rattus norvegicus, UniProt P42260); test: Two-electrode voltage-clamp, recombinant GluR6; format: cell-based; conditions: 30 μM compound
NR1/NR2B = NR1/NR2B (Rattus norvegicus, UniProt P35439+Q00960); test: Two-electrode voltage-clamp, recombinant NR1/NR2B in Xenopus oocytes; format: cell-based; conditions: for response at saturating concentration, NR2B (fitted minimum): fit with variable minimum, predicted
Sequence of NR1/NR2B (Q00960 27-1482, other chains not shown): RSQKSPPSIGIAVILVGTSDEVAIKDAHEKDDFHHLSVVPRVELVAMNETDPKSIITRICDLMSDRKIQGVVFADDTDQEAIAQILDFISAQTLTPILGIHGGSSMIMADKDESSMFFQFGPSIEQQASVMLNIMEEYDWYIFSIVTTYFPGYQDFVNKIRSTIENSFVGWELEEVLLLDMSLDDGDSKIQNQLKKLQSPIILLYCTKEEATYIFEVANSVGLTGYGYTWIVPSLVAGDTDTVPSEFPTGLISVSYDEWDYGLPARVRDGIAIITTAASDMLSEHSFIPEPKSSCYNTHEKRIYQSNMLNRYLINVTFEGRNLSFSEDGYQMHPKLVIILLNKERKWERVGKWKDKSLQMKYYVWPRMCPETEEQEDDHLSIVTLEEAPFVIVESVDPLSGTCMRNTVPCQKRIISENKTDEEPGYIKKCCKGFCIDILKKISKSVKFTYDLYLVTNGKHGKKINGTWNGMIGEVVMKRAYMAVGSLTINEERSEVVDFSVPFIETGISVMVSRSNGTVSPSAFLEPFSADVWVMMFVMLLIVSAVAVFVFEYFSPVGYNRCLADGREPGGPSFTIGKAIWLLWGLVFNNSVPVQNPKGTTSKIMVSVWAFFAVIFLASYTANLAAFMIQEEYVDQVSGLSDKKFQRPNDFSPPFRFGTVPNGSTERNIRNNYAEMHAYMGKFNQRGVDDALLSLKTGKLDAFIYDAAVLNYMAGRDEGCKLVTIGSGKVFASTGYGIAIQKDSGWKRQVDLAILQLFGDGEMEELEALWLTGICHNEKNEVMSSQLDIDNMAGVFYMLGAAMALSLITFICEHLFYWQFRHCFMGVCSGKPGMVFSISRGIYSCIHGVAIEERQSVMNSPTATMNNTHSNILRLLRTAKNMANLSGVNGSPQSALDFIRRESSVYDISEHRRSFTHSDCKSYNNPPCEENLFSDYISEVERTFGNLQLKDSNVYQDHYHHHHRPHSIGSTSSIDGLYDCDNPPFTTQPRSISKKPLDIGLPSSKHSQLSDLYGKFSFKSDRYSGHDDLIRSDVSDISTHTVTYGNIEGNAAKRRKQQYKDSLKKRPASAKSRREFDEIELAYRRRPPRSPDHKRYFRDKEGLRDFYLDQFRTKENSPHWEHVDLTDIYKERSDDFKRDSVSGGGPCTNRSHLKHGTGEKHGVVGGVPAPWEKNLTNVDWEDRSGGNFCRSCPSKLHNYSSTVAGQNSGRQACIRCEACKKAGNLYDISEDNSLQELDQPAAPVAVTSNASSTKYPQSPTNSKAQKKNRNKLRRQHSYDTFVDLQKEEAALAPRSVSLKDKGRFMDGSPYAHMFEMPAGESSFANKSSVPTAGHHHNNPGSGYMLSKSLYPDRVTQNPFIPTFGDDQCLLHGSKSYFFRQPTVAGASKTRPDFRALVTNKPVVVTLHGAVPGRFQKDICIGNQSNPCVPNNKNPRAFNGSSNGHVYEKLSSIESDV

NR1/NR2A = NR1/NR2A (Rattus norvegicus, UniProt P35439+Q00959); test: Two-electrode voltage-clamp, recombinant NR1/NR2A in Xenopus oocytes; format: cell-based; conditions: for response at saturating concentration, NR2A (fitted minimum): fit with variable minimum, predicted
Sequence of NR1/NR2A (Q00959 23-1464, other chains not shown): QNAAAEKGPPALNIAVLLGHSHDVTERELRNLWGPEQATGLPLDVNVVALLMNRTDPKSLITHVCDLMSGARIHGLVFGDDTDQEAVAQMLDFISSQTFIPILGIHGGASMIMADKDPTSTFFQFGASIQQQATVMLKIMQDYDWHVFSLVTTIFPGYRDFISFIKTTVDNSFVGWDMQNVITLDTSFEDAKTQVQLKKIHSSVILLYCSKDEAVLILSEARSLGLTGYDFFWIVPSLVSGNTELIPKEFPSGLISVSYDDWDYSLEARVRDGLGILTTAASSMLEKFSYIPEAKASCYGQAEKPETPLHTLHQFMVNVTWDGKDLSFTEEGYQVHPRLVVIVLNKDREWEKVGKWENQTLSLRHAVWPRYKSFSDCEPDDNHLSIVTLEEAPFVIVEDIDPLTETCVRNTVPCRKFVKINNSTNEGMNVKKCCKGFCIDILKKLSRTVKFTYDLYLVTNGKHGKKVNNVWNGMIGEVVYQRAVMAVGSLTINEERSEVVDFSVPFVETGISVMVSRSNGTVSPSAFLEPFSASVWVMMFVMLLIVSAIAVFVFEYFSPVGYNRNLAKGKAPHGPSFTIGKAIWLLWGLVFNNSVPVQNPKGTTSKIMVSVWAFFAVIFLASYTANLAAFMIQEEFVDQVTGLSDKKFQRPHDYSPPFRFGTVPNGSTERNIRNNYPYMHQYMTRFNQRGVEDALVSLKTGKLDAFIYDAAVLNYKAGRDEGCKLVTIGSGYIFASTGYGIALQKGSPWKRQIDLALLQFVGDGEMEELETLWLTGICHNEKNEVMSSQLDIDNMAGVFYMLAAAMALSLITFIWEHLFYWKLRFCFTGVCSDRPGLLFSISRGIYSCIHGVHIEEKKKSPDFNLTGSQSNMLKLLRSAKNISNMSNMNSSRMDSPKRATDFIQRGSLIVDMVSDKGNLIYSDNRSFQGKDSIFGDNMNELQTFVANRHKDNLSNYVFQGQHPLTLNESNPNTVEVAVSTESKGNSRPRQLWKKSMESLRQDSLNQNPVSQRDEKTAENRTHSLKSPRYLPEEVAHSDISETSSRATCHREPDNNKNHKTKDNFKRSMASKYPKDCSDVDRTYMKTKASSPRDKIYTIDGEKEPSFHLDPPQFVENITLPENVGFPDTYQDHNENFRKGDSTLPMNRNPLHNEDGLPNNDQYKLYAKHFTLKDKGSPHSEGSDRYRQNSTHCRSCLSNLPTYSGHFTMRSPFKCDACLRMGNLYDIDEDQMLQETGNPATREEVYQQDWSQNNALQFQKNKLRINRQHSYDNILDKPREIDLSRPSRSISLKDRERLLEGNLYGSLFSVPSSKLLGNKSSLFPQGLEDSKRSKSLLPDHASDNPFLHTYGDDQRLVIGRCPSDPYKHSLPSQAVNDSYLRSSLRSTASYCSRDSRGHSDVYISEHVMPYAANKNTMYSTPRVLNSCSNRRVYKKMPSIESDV

[1] = Maximum solubility by nephelometry; format: physicochemical; conditions: oocyte recording solution with 1% DMSO, aqueous buffer, kinetic from dmso stock

extent of inhibition of NR1/NR2D responses (NR1/NR2D): completely | voltage dependence of inhibition at NR1/NR2D (NR1/NR2D; 10 μM compound, -40 mV vs +40 mV): voltage-independent | mode of inhibition at NR1/NR2D (NR1/NR2D; 30 μM compound, glutamate/glycine raised from 100/30 μM to 1000/300 μM): non-competitive | extent of inhibition of NR1/NR2C responses (NR1/NR2C): completely | mode of inhibition at NR1/NR2C (NR1/NR2C): non-competitive | voltage dependence of inhibition at NR1/NR2C (NR1/NR2C): voltage-independent | fold more potent (lower fitted IC50) at NMDA receptors than AMPA receptors (GluR1): 4-5 fold
Compound: O=C(O)c1ccc(-n2c(/C=C/c3cccc([N+](=O)[O-])c3)nc3ccccc3c2=O)cc1 [Compound 2, (E)-4-(2-(3-nitrostyryl)-4-oxoquinazolin-3(4H)-yl)benzoic acid]

Compound: COc1ccccc1-n1c(/C=C/c2ccccc2[N+](=O)[O-])nc2ccccc2c1=O [Compound 3, (E)-3-(2-methoxyphenyl)-2-(2-nitrostyryl)quinazolin-4(3H)-one]
extent of inhibition of NR1/NR2D responses (NR1/NR2D): completely | extent of inhibition of NR1/NR2C responses (NR1/NR2C): completely | fold more potent (lower fitted IC50) at NMDA receptors than AMPA receptors (GluR1): 4-5 fold

IC50 (NR1/NR2C): 39 µM
Compound: O=C(O)c1ccc(-n2c(/C=C/c3ccccc3)nc3ccccc3c2=O)cc1 [Compound 23]

IC50 (NR1/NR2C): 42 µM
Compound: COc1ccc(/C=C/c2nc3ccccc3c(=O)n2-c2ccc(C(=O)O)cc2)cc1 [Compound 24]

IC50 (NR1/NR2C): 17 µM
Compound: COc1cccc(/C=C/c2nc3ccccc3c(=O)n2-c2ccc(C(=O)O)cc2)c1 [Compound 25]

IC50 (NR1/NR2C): 32 µM
Compound: COc1ccccc1/C=C/c1nc2ccccc2c(=O)n1-c1ccc(C(=O)O)cc1 [Compound 26]

IC50 (NR1/NR2C): 23 µM
Compound: O=C(O)c1ccc(-n2c(/C=C/c3ccc(C(F)(F)F)cc3)nc3ccccc3c2=O)cc1 [Compound 27]

IC50 (NR1/NR2C): 8 µM
Compound: O=C(O)c1ccc(-n2c(/C=C/c3cccc(C(F)(F)F)c3)nc3ccccc3c2=O)cc1 [Compound 28]

GluR1/NR2D: (IC50 GluR1)/(IC50 NR2D) (NR1/NR2D): >10 | NR2A/NR2D: (IC50 NR2A)/(IC50 NR2D) (NR1/NR2D): >10 | IC50 (NR1/NR2C): 88 µM
Compound: O=C(O)c1ccc(-n2c(/C=C/c3ccccc3C(F)(F)F)nc3ccccc3c2=O)cc1 [Compound 29]

IC50 (NR1/NR2C): 50 µM
Compound: O=C(O)c1ccc(-n2c(/C=C/c3ccc(O)cc3)nc3ccccc3c2=O)cc1 [Compound 30]

GluR1/NR2D: (IC50 GluR1)/(IC50 NR2D) (NR1/NR2D): >17 | IC50 (NR1/NR2C): 28 µM
Compound: Cc1ccc(/C=C/c2nc3ccccc3c(=O)n2-c2ccc(C(=O)O)cc2)cc1 [Compound 33]

GluR1/NR2D: (IC50 GluR1)/(IC50 NR2D) (NR1/NR2D): >16 | IC50 (NR1/NR2C): 28 µM
Compound: Cc1cccc(/C=C/c2nc3ccccc3c(=O)n2-c2ccc(C(=O)O)cc2)c1 [Compound 34]

GluR1/NR2D: (IC50 GluR1)/(IC50 NR2D) (NR1/NR2D): >20 | NR2A/NR2D: (IC50 NR2A)/(IC50 NR2D) (NR1/NR2D): >20
Compound: O=C(O)c1ccc(-n2c(/C=C/c3cccc([N+](=O)[O-])c3)nc3cccc(Cl)c3c2=O)cc1 [Compound 36, (E)-4-(5-chloro-2-(3-nitrostyryl)-4-oxoquinazolin-3(4H)-yl)benzoic acid]

GluR1/NR2D: (IC50 GluR1)/(IC50 NR2D) (NR1/NR2D): >50 | NR2A/NR2D: (IC50 NR2A)/(IC50 NR2D) (NR1/NR2D): >50
Compound: O=C(O)c1ccc(-n2c(/C=C/c3ccc([N+](=O)[O-])cc3)nc3c(Cl)cc(Cl)cc3c2=O)cc1 [Compound 41, (E)-4-(6,8-dichloro-2-(4-nitrostyryl)-4-oxoquinazolin-3(4H)-yl)benzoic acid]

IC50 (NR1/NR2C): 14 µM
Compound: O=C(O)c1ccc(-n2c(/C=C/c3cccc([N+](=O)[O-])c3)nc3ccc(F)cc3c2=O)cc1 [Compound 42, (E)-4-(6-fluoro-2-(3-nitrostyryl)-4-oxoquinazolin-3(4H)-yl)benzoic acid]

selectivity for NR2C/D (NR2D) over NR2A/B (NR1/NR2D): > 50 fold | effect on GluR6 responses (GluR6): No significant effect
Compound: COc1ccc2nc(/C=C/c3cccc([N+](=O)[O-])c3)n(-c3ccc(C(=O)O)cc3)c(=O)c2c1 [Compound 46, (E)-4-(6-methoxy-2-(3-nitrostyryl)-4-oxoquinazolin-3(4H)-yl)benzoic acid]

response at saturating concentration, NR2B (fitted minimum) (NR1/NR2B): 51 % of control | response at saturating concentration, NR2D (fitted minimum) (NR1/NR2D): 14 % of control | response at saturating concentration, NR2C (fitted minimum) (NR1/NR2C): 22 % of control | response at saturating concentration, NR2A (fitted minimum) (NR1/NR2A): 68 % of control
Compound: O=C(O)c1ccc(-n2c(/C=C/c3cccc([N+](=O)[O-])c3)nc3ccc(-c4ccccc4)cc3c2=O)cc1 [Compound 49, (E)-4-(2-(3-nitrostyryl)-4-oxo-6-phenylquinazolin-3(4H)-yl)benzoic acid]

response at saturating concentration, NR2B (fitted minimum) (NR1/NR2B): 50 % of control | response at saturating concentration, NR2D (fitted minimum) (NR1/NR2D): 20 % of control | response at saturating concentration, NR2C (fitted minimum) (NR1/NR2C): 26 % of control | response at saturating concentration, NR2A (fitted minimum) (NR1/NR2A): 68 % of control
Compound: O=C(O)c1ccc(-n2c(/C=C/c3cccc([N+](=O)[O-])c3)nc3cc4ccccc4cc3c2=O)cc1 [Compound 50, (E)-4-(2-(3-nitrostyryl)-4-oxobenzo[g]quinazolin-3(4H)-yl)benzoic acid]

GluR1/NR2D: (IC50 GluR1)/(IC50 NR2D) (NR1/NR2D): >8
Compound: O=C(O)c1ccc(-n2c(/C=C/c3cccc([N+](=O)[O-])c3)nc3cc4c(cc3c2=O)OCO4)cc1 [Compound 52, (E)-4-(6-(3-nitrostyryl)-8-oxo-[1,3]dioxolo[4,5-g]quinazolin-7(8H)-yl)benzoic acid]

GluR1/NR2D: (IC50 GluR1)/(IC50 NR2D) (NR1/NR2D): >2 | NR2A/NR2D: (IC50 NR2A)/(IC50 NR2D) (NR1/NR2D): >2
Compound: COc1ccc2nc(/C=C/c3cccc(C(=O)O)c3)n(-c3ccc(C(=O)O)cc3)c(=O)c2c1 [Compound 62, (E)-3-(2-(3-(4-carboxyphenyl)-6-methoxy-4-oxo-3,4-dihydroquinazolin-2-yl)vinyl)benzoic acid]

Compound: COc1ccc2nc(/C=C/c3ccc(OC(C)=O)c(OC(C)=O)c3)n(-c3ccc(C(=O)O)cc3)c(=O)c2c1 [Compound 64, (E)-4-(2-(3,4-diacetoxystyryl)-6-methoxy-4-oxoquinazolin-3(4H)-yl)benzoic acid]
IC50 (NR1/NR2B): > 300 µM | IC50 (NR1/NR2D): 52 µM | GluR1/NR2D: (IC50 GluR1)/(IC50 NR2D) (NR1/NR2D): >6 | NR2A/NR2D: (IC50 NR2A)/(IC50 NR2D) (NR1/NR2D): >6 | IC50 (NR1/NR2C): 124 µM | IC50 (GluR1): > 300 µM | IC50 (NR1/NR2A): > 300 µM

GluR1/NR2D: (IC50 GluR1)/(IC50 NR2D) (NR1/NR2D): >9
Compound: N#Cc1ccc(/C=C/c2nc3ccccc3c(=O)n2-c2ccc(C(=O)O)cc2)cc1 [Compound 66]

GluR1/NR2D: (IC50 GluR1)/(IC50 NR2D) (NR1/NR2D): >10 | NR2A/NR2D: (IC50 NR2A)/(IC50 NR2D) (NR1/NR2D): >10
Compound: C=CCOc1ccc(/C=C/c2nc3ccccc3c(=O)n2-c2ccc(C(=O)O)cc2)cc1 [Compound 69]

solubility [1]: 10 µM (≈ 5.39 µg/mL) | response at saturating concentration, NR2D (fitted minimum) (NR1/NR2D): 26 % of control | GluR1/NR2D: (IC50 GluR1)/(IC50 NR2D) (NR1/NR2D): >220 | effect on GluR6 responses (GluR6): No significant effect | response at saturating concentration, NR2C (fitted minimum) (NR1/NR2C): 31 % of control
Compound: O=C(O)c1ccc(-n2c(/C=C/c3ccc([N+](=O)[O-])cc3)nc3ccc(I)cc3c2=O)cc1 [Compound 72, (E)-4-(6-iodo-2-(4-nitrostyryl)-4-oxoquinazolin-3(4H)-yl)benzoic acid]

GluR1/NR2D: (IC50 GluR1)/(IC50 NR2D) (NR1/NR2D): >37 | NR2A/NR2D: (IC50 NR2A)/(IC50 NR2D) (NR1/NR2D): >37
Compound: O=C(O)c1cccc(-n2c(/C=C/c3ccc([N+](=O)[O-])cc3)nc3ccc(I)cc3c2=O)c1 [Compound 73, (E)-3-(6-iodo-2-(4-nitrostyryl)-4-oxoquinazolin-3(4H)-yl)benzoic acid]

GluR1/NR2D: (IC50 GluR1)/(IC50 NR2D) (NR1/NR2D): >42
Compound: COc1ccc2nc(/C=C/c3ccc([N+](=O)[O-])cc3)n(-c3ccc(C(=O)O)cc3)c(=O)c2c1 [Compound 75, (E)-4-(6-methoxy-2-(4-nitrostyryl)-4-oxoquinazolin-3(4H)-yl)benzoic acid]

GluR1/NR2D: (IC50 GluR1)/(IC50 NR2D) (NR1/NR2D): >19
Compound: COc1ccc2nc(/C=C/c3ccc([N+](=O)[O-])cc3)n(-c3cccc(C(=O)O)c3)c(=O)c2c1 [Compound 76, (E)-3-(6-methoxy-2-(4-nitrostyryl)-4-oxoquinazolin-3(4H)-yl)benzoic acid]

Compound: Cc1nc2ccc(I)cc2c(=O)n1-c1ccc(C(=O)O)cc1 [Compound 78, 4-(6-Iodo-2-methyl-4-oxoquinazolin-3(4H)-yl)benzoic acid]
inhibitory activity (NR1/NR2D; concentrations up to 100 μM): total loss of inhibitory activity

potency reduction on saturating the styryl linker (81 vs 80) (NR1/NR2D): 10 fold
Compound: Cc1ccc2nc(CCc3ccccc3)n(-c3ccc(C(=O)O)cc3)c(=O)c2c1 [Compound 81, 4-(6-Methyl-4-oxo-2-phenethylquinazolin-3(4H)-yl)benzoic acid]

GluR1/NR2D: (IC50 GluR1)/(IC50 NR2D) (NR1/NR2D): >50
Compound: O=C(O)c1ccc(-n2c(/C=C/c3ccc4ccccc4c3)nc3ccccc3c2=O)cc1 [Compound 82]

GluR1/NR2D: (IC50 GluR1)/(IC50 NR2D) (NR1/NR2D): >18 | NR2A/NR2D: (IC50 NR2A)/(IC50 NR2D) (NR1/NR2D): >18
Compound: O=C(O)c1ccc(-n2c(/C=C/c3ccc4c(c3)OCCO4)nc3ccccc3c2=O)cc1 [Compound 86]

Compound: COc1cccc(-n2c(/C=C/c3cccnc3)nc3ccc(I)cc3c2=O)c1 [Compound 90]
IC50 (NR1/NR2D): 200 µM

Compound: (E)-4-(6,7-dimethoxy-2-(3-nitrostyryl)-4-oxoquinazolin-3(4H)-yl)benzoic acid [Compound 63]
GluR1/NR2D: (IC50 GluR1)/(IC50 NR2D) (NR1/NR2D): 7
